Laboratory results from patent US20250064791A1, “5-[[4-[2-[5-(1-HYDROXYETHYL)PYRIDIN-2-YL]ETHOXY]PHENYL]METHYL]-1,3-THIAZOLIDINE-2,4-DIONE AND ITS SALTS FOR USE IN THE TREATMENT OF MITOCHONDRIAL DISEASES” (MINORYX THERAPEUTICS S.L., priority 2018, published 2025).

Columns and labels:
MDA MB231 KO cells = test: Mitochondrial respiration (OCR), Seahorse, MDA MB231 KO cells (MPC2 deleted); type: cell-based; conditions: MPC activity genetically deleted (MPC2 KO)
Experimental: (§1) To determine whether MIN-102 has any effect on pyruvate-mediated mitochondrial respiration, the extracellular flux analyzer Seahorse was used as described in Compan et al. Seahorse experiments were performed in the following cell lines: HeLa (Cervix cancer cells), A549 (lung cancer cells), wild type MDA MB 231, and MDA MB 231 in which MPC2 has been deleted, leading to inactivation of the MPC (MDA MB231 KO). MDA MB231 cells are epithelial breast cancer cells. Cells were incubated with increasing concentrations of the compounds for one hour at 37° C. before oxygen consumption rate (OCR) measurements. The Seahorse analyzer allowed to measure basal and maximal respiration measured upon depolarization with 1 μM CCCP.
(§2) The KO cells have been deleted of the MPC2 gene and therefore they display no MPC activity. […] OCR values are expressed as ratios of OCR in the presence of different concentrations of the tested compound over the OCR in PBS alone.

adiponectin = test: Plasma adiponectin levels in Sprague Dawley rats (ELISA); type: in vivo; conditions: 54 mg/Kg/day for 7 days, plasma 1 h after last administration, vs vehicle
Experimental: Evaluation of the effect of Compounds of the Disclosure on adiponectin was performed in Sprague Dawley rats. The rats were treated for 7 days with repeated doses of MIN-102 at 54 mg/Kg/day. Plasma were obtained at 1 h after the last M1N-102 administration. Adiponectin levels were measured by ELISA. Results were represented as mean+standard error of the mean of n=8. Data were analyzed by Kruskal-Wallis followed by the Dunn post-hoc test versus the vehicle group (****,p<0.0001).

[1] = system: MCD diet fed C57BL6/J mice; test: Methionine Choline Deficient (MCD) diet NASH mouse model; type: in vivo, C57BL6/J male mice; conditions: 62.5 mg/kg BID orally
Experimental: The preventive effects of MIN-102 was evaluated in a 7-week Methionine Choline Deficient (MCD) diet NASH mouse model (Verdelho Machado et al.). After the acclimation period, C57BL6/J male mice (n=20) were weighed and randomized into 2 homogenous treatment groups based on body weight (n=10/group), put on a MCD diet, and treated BID orally with vehicle or MIN-102 for 7 weeks.
MIN-102 was dosed 62.5 mg/kg BID orally by gavage.
After the acclimation period, C57BL6/J male mice (n=20) were weighed and randomized into 2 homogenous treatment groups based on body weight (n=10/group), put on a MCD diet, and treated BID orally with a vehicle or MIN-102 (125 mg/Kg/day) for 7 weeks. Body weight was measured 3 times/week until the end of the experimental phase.
At 7 weeks of diet/treatment, mice were weighed and treated at ˜08:00 am in the morning, then bled (maximal volume/EDTA) at ˜1:00 pm. Plasma was then immediately isolated and stored at −80° C. prior to assay plasma ALT and AST. The plasma volume left over was stored at −80° C. for eventual additional analysis.
After blood collection, the mice were sacrificed by cervical dislocation under isoflurane anesthesia and exsanguinated with sterile saline.
Histology analysis was performed (oil red O, H&E and Sirius Red staining) for NAFLD scoring system (NAS) for liver steatosis, inflammation, fibrosis and hepatocyte ballooning.

[2] = humans, compared with pioglitazone; from PCT/IB2017/057587; cited from earlier work
[3] = system: wild type MDA MB 231 cells; test: Mitochondrial respiration (OCR), Seahorse, wild type MDA MB231 cells; type: cell-based; conditions: cells with active MPC
Experimental: as §1, §2

[4] = target: mitochondrial pyruvate carrier (MPC) (Homo sapiens (Human), UniProt O95563+Q9Y5U8); test: MPC inhibitory activity, BRET assay in HEK cells; type: cell-based
Sequence of mitochondrial pyruvate carrier (MPC) (Q9Y5U8 whole entry, the tested form may be a part): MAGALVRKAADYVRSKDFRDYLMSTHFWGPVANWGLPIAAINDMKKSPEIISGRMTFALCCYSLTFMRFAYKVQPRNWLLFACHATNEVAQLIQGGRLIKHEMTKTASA
Sequence of mitochondrial pyruvate carrier (MPC) (O95563 whole entry, the tested form may be a part): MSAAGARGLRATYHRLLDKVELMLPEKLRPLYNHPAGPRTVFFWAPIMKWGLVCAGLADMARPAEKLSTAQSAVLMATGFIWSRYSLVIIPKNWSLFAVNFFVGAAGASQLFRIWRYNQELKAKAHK
Experimental: The MPC is a heterodimer composed of two subunits, MPC1 and MPC2. MPC1 and MPC2 interact to form an active carrier. In the assay, MPC2 was fused to Rluc8 (Donor) and MPC1 to Venus (Acceptor). These chimeric proteins were stably expressed in HEK cells. BRET activity was measured following addition of coelenterazine in the culture medium. Coelenterazine enters into cells and in contact with luciferase Rluc8 emits light, which activates the emission of fluorescence by the Acceptor, provided the distance between the Donor and Acceptor is <[…]. If the distance between Donor and Acceptor is >[…], no BRET activity is measured. The level of BRET activity reflects a change in the conformation of the MPC: it is high when the carrier is in a closed conformation, low when the carrier is at rest and intermediary when it transports pyruvate. In this case, the BRET activity is the mean value between the BRET value when the carrier is at rest (Maximal distance between Donor and Acceptor) and the BRET value when it is closed (Shortest distance between Donor and Acceptor)

| SMILES | effect on oxygen consumption (MDA MB231 KO cells) | adiponectin levels in plasma (adiponectin) | hepatic cholesterol levels ([1]; 7 weeks) | oil red o staining % ([1]; 7 weeks, vs vehicle) | reduction in hepatic triglycerides levels ([1]; 7 weeks, vs vehicle) | reduction of plasma ALT level ([1]; 7 weeks, vs vehicle) | reduction of plasma AST level ([1]; 7 weeks, vs vehicle) | Mean NAS group score ([1]; 7 weeks, histology) | liver inflammation ([1]; 7 weeks, histology) | steatosis score ([1]; 7 weeks, histology, vs vehicle) | body weight loss ([1]; day 14 to day 50, vs vehicle) | variability in exposure (PK variability) [2] | effect on oxygen consumption [3] | IC50 [4] |
| --- | --- | --- | --- | --- | --- | --- | --- | --- | --- | --- | --- | --- | --- | --- |
| CC(O)c1ccc(CCOc2ccc(CC3SC(=O)NC3=O)cc2)nc1 (racemic) [MIN-102, 5-[[4-[2-[5-(1-hydroxyethyl)pyridin-2-yl]ethoxy]phenyl]methyl]-1,3-thiazolidine-2,4-dione] | does not inhibit oxygen consumption | significantly increased | did not show a change | extremely low | 92% | 78% | 55% | 0.44±01 | total disappearance of inflammation | blunted steatosis score | less severe decline in body weight loss | less variability in exposure than pioglitazone | inhibits oxygen consumption in a MPC dependent manner |  |
| CN(CCOc1ccc(CC2SC(=O)NC2=O)cc1)c1ccccn1 (centres unmarked) [Rosiglitazone] |  |  |  |  |  |  |  |  |  |  |  |  |  | 2000 nM |
